Source: patent US20140212437A1, “METHODS AND COMPOSITIONS FOR TREATING ATRIAL FIBRILLATION” (THE REGENTS OF THE UNIVERSITY OF MICHIGAN, priority 2013, published 2014)
Entries after “also recorded” stand apart in the source; their conditions may differ. Values belong to the molecule of their own block, whether it stands above or below them.

Key:
SCN5A = assay: mRNA analysis by qPCR, SCN5A; assay type: cell-based, rat
Protocol: (§1) Cell Treatment: Isolated adult rat cardiac myocytes were treated with FCM or TGF-β1 (R and D systems, Minneapolis, Minn.) for 3 days in serum free medium. For PI3K pathway inhibition cells were pretreated (30 min) with 10 μM […] (Cayman Chemicals, Ann Arbor) before the treatment with TGF-β1.
(§2) mRNA analysis by quantitative PCR (qPCR): Cardiac myocytes were washed with PBS and lysed with lysis buffer. RNA was isolated from the myocardial tissue using RNAeasy kit from Qiagen (Qiagen, Valencia, Calif.) according to the manufacturer's instructions. Isolated RNA from these samples was treated with DNase for 15 min at room temperature (Qiagen, Valencia. CA). 100 ng of DNA-free total poly-A tail RNA (mRNA) was first subjected to synthesis of cDNA using Oligo dT primers applying SuperScript III First-Strand Synthesis System from Invitrogen (Invitrogen, Carlsbad, Calif.) according to the manufacturer's instructions. cDNA from 20 ng of total RNA was then subjected to real-time RT-PCR using predesigned taqman probe primers specific for rat Scn5a (Rn00565502), Kcnip2 (Kchip2; Rn01411451) and kcnd2 (Rn01456260) (Applied Biosystems, California). No-template controls and no-RT controls were run during each experiment to detect any RNA and/or DNA contamination. Results are expressed as fold expression of gene of interest normalized to GAPDH expression in the sample.

FOXO1 = assay: Western blot of FOXO1 phosphorylation; assay type: cell-based, rat
Protocol: as §1
Western blotting: Control and treated cardiac myocytes were washed in cold PBS, lysed directly in the modified loading buffer (25 mmol/l Tris.HCl; 150 mmol/l NaCl; 1 mmol/l EDTA; 4 mmol/l NaF; 2 mmol/l Sodium ortho-vanadate; 1% Triton X-100, protease inhibitor, 5% glycerol, 1% SDS, 0.05% bromophenol blue. 5% β mercaptoethanol) and sonicated. The lysate (20 μl) were then subjected SDS-PAGE as described earlier. The blots were incubated with rabbit pFOXO1 antibody, 1:500 (Cell Signaling) or rabbit GAPDH antibody, 1:5000 (Sigma-Aldrich, St. Louis, Mo.).

[1] = system: adult sheep atrial fibroblasts; assay: Cell proliferation, WST reagent; assay type: cell-based; conditions: 1-30 μg/ml, 24 hours, SFM
Protocol: (§3) Wound healing experiments were performed to investigate if exogenous Gal-3 can increase myofibroblast migration in vitro (FIG. 3). Adult sheep atrial fibroblasts were cultured in 96-well plates until confluent. Before serum starvation, cells were stained with cell tracker dye and DAPI. A wound was created by scraping a semi-confluent monolayer of cells with a 1 ml pipette tip. Thereafter, cells underwent serum starvation in DMEM with […] for 6 hrs. Comparisons were made between untreated and Gal-3 treated (1 μg/ml or 10 μg ml) cells. The wound was imaged at 4 different locations at 3 different time points (days 0, 1 and 2). The size of the wound was quantified using the NIS element program by Nikon. […] Next, to investigate the effects of Gal-3 on myofibroblast proliferation, adult sheep atrial fibroblasts were treated with recombinant human Gal-3 (EMD chemicals, USA) for 24 hours in the presence of SFM. FM was included as a positive control. Cell proliferation was measured using cell proliferation reagent WST (Roche Diagnostics, USA). […] Such concentrations are in the same range used previously (Sharma et al., Circulation. 2004; 110:3121-3128) to investigate Gal-3 induced fibroblast proliferation in the cardiomyopathic heart. […] In addition, the results strongly support the therapeutic value of Gal-3 inhibitors.

[2] = system: adult sheep atrial fibroblasts; assay: Wound healing (in vitro migration) assay; assay type: cell-based; conditions: Gal-3 vs untreated cells, days 0-2
Protocol: as §3

KCND2 = assay: mRNA analysis by qPCR, KCND2; assay type: cell-based, rat; conditions: 1 ng/ml, 72 hr
Protocol: as §2

[3] = system: adult rat ventricular myocytes; assay: Action potential recording, current clamp; assay type: cell-based
Protocol: as §1
Action potentials were recorded from individual myocytes using the current clamp mode of the MultiClamp 700B amplifier after gigaseal formation and patch break. Stimulus pulses (1-2 ms duration) were generated using a World Precision Instruments DS8000 stimulator (Sarasota, Fla.). The bath solution contained (in mM): NaCl: 148, KCl: 5.4, MgCl2: 1, CaCl2 1.8, NaH2PO4: 0.4, HEPES: 15, Glucose: 5.5, pH 7.4 with NaOH. The pipette solution contained (in mM), KCl: 20, K-aspartate: 90, KH2PO4: 10, EDTA: 5.0. K2ATP: 1.9, HEPES: 5.0 and Mg2+ 7.9; pH 7.2 (KOH)

[4] = system: adult rat ventricular myocytes; assay: Whole-cell patch clamp, sodium current (INa); assay type: cell-based
Protocol: as §1
Patch-clamp experiments: Whole-cell ionic currents were recorded from adult rat ventricular myocytes. All recordings were conducted at room temperature. Sodium current recordings were conducted in a low-sodium extracellular solution containing (in mM): NaCl, 10; MgCl2, 1; CaCl2, 1.8; CdCl2, 0.1; HEPES, 20; CsCl, 127.5; glucose, 11. The pipette solution contained (in mM): NaCl, 5; CsF, 135; EGTA, 10; MgATP, 5; HEPES, 5. To characterize the voltage dependence of the peak INa, single cells were held at −120 mV, and 200 msec voltage steps were applied from −90 to +30 mV in 5 mV increments. The interval between voltage steps was 3 sec. Voltage-dependence of inactivation was assessed by holding cells at various potentials from −160 to −40 mV followed by a 30 msec test pulse to −40 mV to elicit INa. Recovery from inactivation was studied by holding cells at −120 mV and applying two 20-msec test pulses (S1, S2) to −40 mV separated by increments of 2 msec to a maximum S1-S2 interval of 80 msec. The S1-S1 interval was kept constant at 3 sec.
(§4) In all experiments, cells were exposed to one of the following for 72 hrs prior to the experiment: control medium, FCM or TGF-β1.

[5] = system: adult rat ventricular myocytes; assay: Whole-cell patch clamp, transient outward potassium current (Ito); assay type: cell-based; conditions: 72-hr
Protocol: as §1
The extracellular solution for transient outward potassium current (Ito) contained (in mM): 136 NaCl, 4 KCl, 1.8 CaCl2, 2 MgCl2, 10 HEPES, 0.03 tetrodotoxin. 0.01 nifedipine, and 14 glucose, pH 7.35. The pipette solution contained (in mM): 135 KCl, 1 MgCl2, 10 EGTA, 10 HEPES, 5 glucose, pH 7.2. Voltage-gated outward K+ currents were evoked during 5-s depolarizing voltage steps to potentials between −40 and +60 mV from a holding potential of −70 mV; voltage steps were presented in 10 mV increments at 15 s intervals
as §4

KCNIP2 = assay: mRNA analysis by qPCR, KCNIP2; assay type: cell-based, rat; conditions: 1 ng/ml, 72 hr
Protocol: as §2

Molecule: O=c1cc(N2CCOCC2)oc2c(-c3ccccc3)cccc12 [LY 29004, reference compound]
TGF-β1-induced increase in SCN5A transcription (SCN5A; pretreated 30 min with 10 μM): failed to show increased SCN5A transcription | phosphorylation of FOXO1 in TGF-β1 treated cells (FOXO1; pretreated 30 min with 10 μM): inhibited

Molecule: Gal-3: recombinant human Gal-3 (EMD chemicals, USA) added exogenously to sheep atrial fibroblasts
number of adult sheep atrial myofibroblasts (proliferation) [1]: increased the number of adult sheep atrial myofibroblasts in a concentration-dependent manner; also recorded: increases proliferation | rate of migration / wound healing [2]: significantly increased the rate of migration and promoted wound healing; also recorded: increases the rate of wound healing

EC50 for peak inward INa density ([4]; 72 hours, 0.001-1.0 ng/ml): 0.007 ng/mL
Molecule: TGF-β1
SCN5A transcript levels, increase (SCN5A; 1 ng/ml, 72 hr): 1.73±0.26 fold | decrease of KCND2 expression with respect to control (KCND2): 50.6% | action potential duration (APD) ([3]; 10 ng/ml, 72 hours): basic cycle length (BCL) dependent action potential duration (APD) prolongation | APD30 relative to control ([3]; 10 ng/ml, BCL of 1000 ms): > 3.5 times | APD30 ([3]; 10 ng/ml, BCL of 1000 ms, control 8.1±3.6): 29.1 ± 5.6 ms | action potential duration / early afterdepolarizations ([3]; 50 ng/ml): APD was so prolonged that some cells early afterdepolarizations (EADs) | maximum INa increase ([4]; 1 ng/ml, 72 hours, also seen at 10 ng/ml): about 40% | more inward current compared to control medium ([4]; 1 ng/ml, at −40V): about 40% | peak INa density compared to control ([4]; 1 ng/ml, step voltages between −60 mV and −30 mV, p<0.05-0.01): significantly increased the peak INa density | voltage dependence of activation (m∞) and inactivation (h∞) ([4]; 72 hr treatment or viral overexpression): neither the m∞ nor the h∞ curve was modified | increase in phosphorylated FOXO1 compared to control (FOXO1; 1 ng/ml): 67% | exposure time of peak FOXO1 phosphorylation (FOXO1; 1 ng/ml, phosphorylation seen at 5 min): 15 min | peak Ito ([5]; 1 ng/ml): significantly reduced the peak Ito but to a much modest level | Ito current density, % of control levels ([5]; 10 ng/ml, at 60 mV): 57% | reduction of Ito current density ([5]; 10 ng/ml, at +20 mV): 42% | Ito current density at 60 mV ([5]; 10 ng/ml, control 22.2±1.2): 12.6±0.98 | Ito compared to control ([5]; 10 ng/ml, voltages between +20 mV and +60 mV): significantly lower than control | reduction of mRNA levels of KCNIP2 (KCNIP2): 77%
